These results are taken from paper PMC4311985, “Molecular Surveillance of Antiviral Drug Resistance of Influenza A/H3N2 Virus in Singapore, 2009-2013” (PLoS ONE, 2015).

In assay [1] the test system is NA with combination of G248R and K249E mutations. The settings on record: 'low levels' of resistance; cited from earlier work.
In assay [2] the target is influenza A/H3N2 NA, wild-type (baseline) at loci 93, 155, 251 (Influenza A virus (H3N2), UniProt V9SU56). The format is biochemical. The settings on record: wild-type (baseline) at each locus; 10 samples tested; mean; read-out: mean drug concentration required to inhibit 50% NA activity.

Consider `CC(=O)N[C@H]1[C@H]([C@H](O)[C@H](O)CO)OC(C(=O)O)=C[C@@H]1N=C(N)N` [Zanamivir, zanamivir], for which the IC50 increase in assay [1] is listed as < 10 fold.

In the case of `CCOC(=O)C1=C[C@@H](OC(CC)CC)[C@H](NC(C)=O)[C@@H](N)C1` [Oseltamivir, oseltamivir], in assay [1], the IC50 increase was < 10 fold.

Turning to `CCC(CC)[C@H](NC(C)=O)[C@@H]1[C@H](O)[C@@H](C(=O)O)C[C@H]1N=C(N)N` [Peramivir, peramivir], the IC50 in assay [2] stood at 200 ± 100 pM.
